Key:
[1] = system: embryonic zebrafish (Danio rerio); test: Embryonic zebrafish developmental toxicity bioassay; settings: for developmental toxicity to embryonic zebrafish: single compound standards, nominal 0.01 – 60 µM, exposure 6–120 hpf; for relative order of mean EC50: single standards, 120 hpf
alkene monooxygenase = test: Inhibition of PHE transformation in ELW1 by 1-octyne; format: cell-based, Mycobacterium sp. strain ELW1; settings: ~7 µmol 1-octyne in the aqueous media
Mycobacterium sp. PYR-1 = settings: cited from earlier work
[2] = 96-well plates ref 64; cited from earlier work
[3] = system: Mycobacterium sp. strain ELW1; test: PHE transformation by ELW1, resting cell tests
[4] = cited from earlier work
Pasteurella spp. = settings: cited from earlier work
[5] = system: Mycobacterium sp. strains PYRGCK, JS19b1, czh-3, czh-117; settings: cited from earlier work
Mycobacterium sp. A1-PYR = settings: cited from earlier work

O[C@@H]1c2ccccc2-c2ccccc2[C@H]1O (relative stereo) [trans-9,10-OHPHE, trans-9,10-dihydroxy-9,10-dihydrophenanthrene]
developmental toxicity to embryonic zebrafish [1]: not toxic

Oc1cc2c(O)cccc2c2ccccc12 [1,9-OHPHE, 1,9-dihydroxyphenanthrene]
developmental toxicity to embryonic zebrafish [1]: toxic | relative order of mean EC50 [1]: most toxic

Oc1cccc2c1ccc1ccccc12 [1-OHPHE, 1-hydroxyphenanthrene]
developmental toxicity to embryonic zebrafish [1]: toxic | relative order of mean EC50 [1]: least toxic

C#CCCCCCC [1-Octyne, 1-octyne]
inhibition of PHE degradation (alkene monooxygenase): effectively, but not completely, inhibited

Oc1ccc2ccc3ccccc3c2c1 [3-OHPHE, 3-hydroxyphenanthrene]
developmental toxicity to embryonic zebrafish [1]: toxic

Oc1cccc2ccc3ccccc3c12 [4-OHPHE, 4-hydroxyphenanthrene]
developmental toxicity to embryonic zebrafish [1]: toxic

Oc1cc2ccccc2c2ccccc12 [9-OHPHE, 9-hydroxyphenanthrene]
developmental toxicity to embryonic zebrafish [1]: toxic

c1ccc2c(c1)ccc1ccccc12 [PHE, phenanthrene]
non-normalized first-order rate of PHE transformation (Mycobacterium sp. PYR-1): -0.0015 h⁻¹ | sorptive losses in test system [2]: less than 10% | first-order PHE transformation rate, kPHE ([3]; 1-octyne controls): 0.015 to 0.10 h⁻¹ | half-life, t1/2 ([3]; 1-octyne controls): 7.0 to 47 h | half-life, t1/2 ([3]; PHE-exposed cells): 1.4 to 4.3 h | water solubility [4]: ~ 7 µM | non-normalized first-order rate of PHE transformation (Pasteurella spp.): -0.0005 h⁻¹ | zero-order transformation rate [5]: −0.0020 to −0.019 µmol hr^−1 | zero-order transformation rate (Mycobacterium sp. A1-PYR): -0.019 µmol/h

Reference: PMC5996983 (Environmental science & technology, 2017)
